Some test systems named below: Hs-578T; DMS-114; LXFL 529; SNB-78; DMS-273; M19-MEL; HOP-18.
Test in all cases: inhibition of tumour cell growth, NCI panel, 48 h

Here are results for 49 compounds from ChEMBL document CHEMBL1201862, “PubChem BioAssay data set” (2004).

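Cultured in 96-well plates, cells were exposed to test compound for 48 hours across five concentrations. GI50 = concentration required for 50% inhibition of growth.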 Activity calls are given as the source filed them. Rule as the data show it: active = GI50 up to about 1.1 µM and inactive = higher. Where a SMILES comes first, the peptide text is derived from it. The star is where a group is joined. Cbz = O=C(OCc1ccccc1)*; Boc = CC(C)(C)OC(=O)*; OSu = O=C1CCC(=O)N1O*; Bn = c1ccc(C*)cc1 A value given as a limit tells only on which side of the number the result lay.

Regarding `Nc1nc(SCc2ccccn2)c2ncn(C3CCCC3)c2n1`, in the experiment with Hs-578T, the GI50 is 25.9 µM (inactive).

For `N=C(N)NCCNC(=N)N`, in the experiment with Hs-578T, the GI50 is > 100 µM (inactive).

In the case of `COc1ccc(C2=CC(c3ccc4c(c3)OCO4)c3c(c4ccccc4oc3=O)O2)cc1OC` (stereo not given), the GI50 in the experiment with Hs-578T was 1.65 µM (inactive).

Take `C[N+](C)(C)CC1CCCc2ccccc2C1=O` (stereo not given): in the experiment with Hs-578T, the GI50 was 37.8 µM (inactive).

Consider `CC(C)=NN/C(=N\c1ccc(Cl)cc1)NS(=O)(=O)c1ccc(C)cc1`, for which the GI50 in the experiment on Hs-578T was > 100 µM (inactive). In the case of `O=C(N/N=C/c1ccco1)c1cc(I)cc(I)c1O`, in the experiment on Hs-578T, the GI50 was 34.5 µM (inactive).

Turning to `N#C/C=C(/NC(=O)Nc1ccccc1)N1CCCC1`, the GI50 in the experiment with Hs-578T is > 86.1 µM (inactive). As to `CN(C)CC/C(=N\Nc1c(Cl)cccc1Cl)c1ccccc1`, the GI50 with DMS-114 is 17.3 µM (inactive); in the experiment on LXFL 529, 14.8 µM (inactive); in the experiment with SNB-78 it was 16.7 µM (inactive); with DMS-273, 16.8 µM (inactive); in the experiment on M19-MEL, 18.3 µM (inactive); in the experiment with HOP-18, 15.1 µM (inactive). Regarding `O=c1oc2c3ccc4ccccc4c3n(Cc3nc4ccccc4[nH]3)c2c2ccccc12`, the GI50 was 4.95 µM (inactive) in the experiment on DMS-114; 9.66 µM (inactive) in the experiment with LXFL 529; > 100 µM (inactive) with SNB-78; 5.46 µM (inactive) with M19-MEL; 7.57 µM (inactive) in the experiment on HOP-18. Regarding `CCOC(=O)n1c(=O)nc2c3c(ncn21)Oc1c(c(-c2ccccc2)nn1-c1ccccc1)C3c1ccc(Cl)cc1` (stereo not given), the GI50 in the experiment with Hs-578T was 1.66 µM (inactive). For the compound `CC(NC(=O)OC(C)(C)C)C(=O)NC(Cc1ccccc1)C(=O)NCC(=O)Oc1c(Cl)c(Cl)c(Cl)c(Cl)c1Cl` (stereo not given), the GI50 in the experiment on Hs-578T was 37.5 µM (inactive). As to `Cn1cc2ccccc2c1-c1nc(F)nc(Oc2ccc3c(c2)CC[C@@H]2C3CC[C@@]3(C)C2CC[C@@H]3O)n1` (stereo not given in full), the GI50 in the experiment on DMS-114 is 3.66 µM (inactive); with LXFL 529, 3.71 µM (inactive); in the experiment on SNB-78 it was 22.3 µM (inactive); with DMS-273, 11.6 µM (inactive); with M19-MEL, 7.98 µM (inactive); in the experiment with HOP-18, 18.2 µM (inactive). With `Nc1nncc2[nH]nnc12`, the GI50 in the experiment with Hs-578T was > 100 µM (inactive). For `C/C=C/[C@@H]1O[C@H](CC#C[Si](C)(C)C)[C@@]2(C=O)C(C)=CC[C@H](C(C)C)[C@@H]12`, the GI50 with Hs-578T is 33.3 µM (inactive). The same measure, in the same setting: then `Cc1ccccc1/N=N/c1c(O)ccc2ccccc12`, with 49.3 µM (inactive); and `CCN(CC)Cc1cc(/N=N\c2c(O)ccc3c(/N=N\c4ccc(O)c(CN(CC)CC)c4)c(O)ccc23)ccc1O`, with 3.73 µM (inactive). Same read-out and setting: then `CCCC1(CCC)c2cc(/C=N\O)ccc2-c2ccc(-c3ccc(C(C)(C)C)cc3)cc21`, with 88.3 µM (inactive); and `COc1ccc2c(C)cc(=O)oc2c1OC`, with > 100 µM (inactive).

As to `O=C(O)CC1CC=C[C@H]2c3cc4c(cc3C(=O)NC12)OCO4` (stereo not given in full), the GI50 with DMS-114, with LXFL 529, with SNB-78, in the experiment on DMS-273 and with M19-MEL was > 75 µM (inactive) throughout. Regarding `Cc1nc2ccc(Cl)cc2c2c1CCS2`, the GI50 in the experiment on Hs-578T is 28.6 µM (inactive). The same measure, in the same setting: then `COC1=CC2=NCCc3n[nH]c(c32)C1=O`, with 29.8 µM (inactive); and `ClC1=C(Cl)C2OC3C=CCC3OC2C(Cl)=C1Cl` (stereo not given), with 27.5 µM (inactive); and `Cn1cnc(C(N)=[Se])c1N`, with 3.74 µM (inactive). Turning to `O=C(CN1CCN(C(=O)OCc2ccccc2)CCN(CC(=O)N2CCCCC2)CCN(C(=O)OCc2ccccc2)CC1)N1CCCCC1`, in the experiment with Hs-578T, the GI50 was 14.3 µM (inactive). On to `COC(=O)C1=C(C(=O)OC)SC(=C2SC3=C(SC(=C4SCCS4)S3)S2)S1`, for which the GI50 in the experiment with Hs-578T is 86.5 µM (inactive). On the same count and under the same terms, then `CCN(CC)C(=S)N/N=C(/c1ccccc1)c1ccccn1`, with > 37.6 µM (inactive). Still for that read-out and setting: then `CCOC1CCN(C(=O)c2ccccc2)O1` (stereo not given), with > 10 µM (inactive); and `O=C1CSC(c2ccccc2O)N1c1ccc(-n2c(-c3ccccc3)nc3ccccc3c2=O)cc1` (stereo not given), with 23.4 µM (inactive).

For the compound `NNC(=O)c1cc(=O)[nH][nH]1`, in the experiment with Hs-578T, the GI50 is > 100 µM (inactive). Take `COc1cccc2c(=O)c3c(O)c4cc(N(C)C)ccc4c(OC(C)=O)c3oc12`: in the experiment with Hs-578T, the GI50 is 14.3 µM (inactive). With `Cn1nc2ccc(Nc3cc(=O)[nH]c4ccc5nn(C)nc5c34)cc2n1`, the GI50 with Hs-578T was > 100 µM (inactive). Still for that read-out and setting: then `COc1ccc(C(SC2C(O)C(CO)OC2n2ccc(=O)[nH]c2=O)(c2ccccc2)c2ccc(OC)cc2)cc1` (stereo not given), with 20.9 µM (inactive). Turning to `NC1=C(Cl)C(=O)c2c(O)ccc(O)c2C1=O`, in the experiment on Hs-578T, the GI50 is 8.3 µM (inactive).

`COC(=O)CC1C2CC3C(C2=O)C13` (stereo not given): the GI50 in the experiment with Hs-578T was > 100 µM (inactive). Turning to `O=C(CSc1nc2ccccc2c(=O)n1-c1ccccc1)N/N=C1\C(=O)Nc2ccc(Br)cc21`, the GI50 in the experiment with Hs-578T was 7.05 µM (inactive). Same read-out and setting: then `NC(=O)c1cc2ccccc2o/c1=N/c1ccccc1`, with > 100 µM (inactive); and `COc1cc(Br)cc2cc(-c3cn4c(n3)sc3ccccc34)c(=O)oc12`, with 15.6 µM (inactive).

On to `COC(=O)C1=C(C)C(=O)C2(CCCCCC2C(=O)OC)C1` (stereo not given), for which the GI50 with DMS-114, with LXFL 529, in the experiment with SNB-78, in the experiment on DMS-273, in the experiment with M19-MEL and in the experiment with HOP-18 was > 100 µM (inactive) each time.

For the compound `NC(=O)NC(=O)CCC(NS(=O)(=O)c1ccccc1)C(=O)NC(N)=O` (stereo not given), the GI50 with Hs-578T is > 100 µM (inactive). Still for that read-out and setting: then `Cc1ccc(NC(=O)c2cccc(OP(=O)(O)Nc3ccc(C)cc3)c2)cc1`, with > 100 µM (inactive); and `O=S(=O)(O)c1cc(/N=N/c2c(O)ccc3ccccc23)c2c(S(=O)(=O)O)cccc2c1`, with > 100 µM (inactive); and `CNC(=O)NS(=O)(=O)c1ccc(C)cc1.NS(=O)O`, with > 100 µM (inactive).

Turning to `C/C(=C\CC[C@]1(C)OC(C)(C)OC1CC/C(C)=C/CO[Si](c1ccccc1)(c1ccccc1)C(C)(C)C)CC/C=C/CO[Si](C)(C)C(C)(C)C` (stereo not given in full), the GI50 with DMS-114, in the experiment with SNB-78, in the experiment on DMS-273 and in the experiment with M19-MEL was > 100 µM (inactive) throughout. For the compound `CC(C)(C)OC(=O)NC(Cc1ccc(OCc2ccccc2)cc1)C(=O)NC(CCCCNC(=O)OCc1ccccc1)C(=O)ON1C(=O)CCC1=O` (stereo not given) (Boc-Tyr(Bn)-Lys(Cbz)-OSu; configuration not given here), the GI50 in the experiment on Hs-578T was 20.3 µM (inactive).

For the compound `O[C@H]1[C@H](O)[C@@H](O)[C@H](O)[C@@H](O)[C@H]1O` [INOSITOL], the GI50 in the experiment with Hs-578T is > 1000 µM (inactive).

As to `C=C1C(=O)O[C@@H]2C(=O)[C@@H](C)[C@@H]3C=CC(=O)[C@@]3(C)[C@@H](OC(=O)/C(C)=C\C)[C@H]12` [MULTISTATIN], the GI50 in the experiment on Hs-578T is 6.44 µM (inactive).

Regarding `O=C(O)CN(CC(=O)O)Cc1cc2c(cc1O)Oc1cc(O)c(CN(CC(=O)O)CC(=O)O)cc1C21OC(=O)c2ccccc21` [OFTASCEINE], in the experiment on Hs-578T, the GI50 is > 100 µM (inactive). Same read-out and setting: then `OC[C@H]1O[C@@H](Oc2cc(O)cc(/C=C/c3ccc(O)cc3)c2)[C@H](O)[C@@H](O)[C@@H]1O` [PICEID], with > 100 µM (inactive); and `O=C(/C=C/c1ccc(Oc2cc(C(=O)/C=C/c3ccc(O)cc3)c(O)cc2O)cc1)c1ccc(O)cc1O` [RHUSCHALCONE II], with 7.28 µM (inactive).
